Series [1] relates to Micrococcus Iuteus ATCC 9341. The series is described as follows: Antibacterial activity (MIC), growth inhibition in LB medium. The settings on record: 100% inhibition of growth after 18–20 h. The format is cell-based, Micrococcus luteus. As for the experimental part:
(§1) (viii) Antibacterial activity of the peptides. The antibacterial activity of the diastereomers was examined in sterile 96-well plates (Nunc F96 microtiter plates) in a final volume of 100 μL as follows: Aliquots (50 μl) of a suspension containing bacteria at a concentration of 10^6 Colony-Forming Units (CFU)/ml LB (Lauria broth) medium were added to 50 μL of water or 66% pooled normal human serum in PBS, containing the peptide in 2-fold serial dilutions. Growth inhibition was determined by measuring the absorbance at 492 nm with a Microplate autoreader E1309 (Bio-tek Instruments), following incubation for 18–20 h at 37° C. […] The bacteria used were: Escherichia coli D21, Pseudomonas aeruginosa ATCC 27853, Acinetobacter calcoaceticus Ac11, Salmonella typhimurium LT2, Bacillus megaterium Bm11, Micrococcus Iuteus ATCC 9341, Bacillus subtilis ATCC 6051.

Series [2] has as its system Pseudomonas aeruginosa ATCC 27853. The settings on record: 100% inhibition of growth after 18–20 h. As for the experimental part: (viii) Antibacterial activity of the peptides.
Antibacterial activity of the mixtures was determined as described in Experimental procedures, section (xii).

A short description of series [3]: CD spectroscopy, α-helix content. The following applies: CD in 40% TFE. In kind it is physicochemical. The protocol: (vii) CD Spectroscopy. The CD spectra of the peptides were measured with a Jasco J-500A spectropolarimeter after calibrating the instrument with (+)-10-camphorsulfonic acid. The spectra were scanned at 23° C. in a capped, quartz optical cell with a 0.5 mm path length. Spectra were obtained at wavelengths of 250 to 190 nm. Eight scans were taken for each peptide at a scan rate of 20 nm/min. […] Fractional helicities (Greenfield and Fasman, 1969; Wu et al., 1981) were calculated as follows: [formula] where [θ]222 is the experimentally-observed mean residue ellipticity at 222 nm, and the values for [θ]^0222 and [θ]^100222, which correspond to 0% and 100% helix content at 222 nm, are estimated to be 2000 and 32000 deg·cm^2/dmole,
1.2 Determination of the secondary structure of the peptides. The secondary structures of the peptides 1, 8, 12, 14, were evaluated from their CD spectra in 40% TFE, a solvent that strongly promotes an α-helical structure, as described in Experimental Procedures, section (vii), and in PBS (35 mM phosphate buffer/0.15 M NaCl, pH 7.0).

Series [4] can be described thus: Membrane permeation, diffusion potential assay. The settings on record: dissipation of diffusion potential. As for the experimental part: (xi) Membrane permeation induced by the peptides. Membrane permeation was assessed utilizing the diffusion potential assay (Loew et al., 1983; Sims et al., 1974) as previously described (Shai et al., 1991). In a typical experiment, in a glass tube, 4 μl of a liposomes suspension (final phospholipids concentration of 33 μM), in a K^+ containing buffer (50 mM K2SO4, 25 mM HEPES-SO4^−2, pH 6.8), was diluted in 1 ml of an isotonic K^+ free buffer (50 mM Na2SO4, 25 mM HEPES-SO4^−2, pH 6.8), and the fluorescent, potential-sensitive dye diS-C2-5 was then added. Valinomycin (1 μl of 10^−7 M) was added to the suspension in order to slowly create a negative diffusion potential inside the vesicles, which led to a quenching of the dye's fluorescence. Once the fluorescence had stabilized, which took 3–10 minutes, peptides were added. The subsequent dissipation of the diffusion potential, as reflected by an increase in fluorescence, was monitored on a Perkin Elmer LS-50B spectrofluorometer, with the excitation set at 620 nm, the emission at 670 nm, and the gain adjusted to 100%. The percentage of fluorescence recovery, Ft, was defined as: Ft=(It−I0/If−I0)×100 where I0=the initial fluorescence, If=the total fluorescence observed before the addition of valinomycin, and It=the fluorescence observed after adding the peptide at time t.
2.5.1 Membrane permeability induced by the peptides. […]

For series [5] the following is noted: phosphatidylglycerol/phosphatidylcholine; Beschiaschvili and Seelig, 1990; cited from earlier work.
Another series relates to Escherichia coli D21. In kind it is cell-based. The settings on record: 100% inhibition of growth after 18–20 h.
The subject of series [6] is Acinetobacter calcoaceticus Ac11. The format is cell-based. The settings on record: 100% inhibition of growth after 18–20 h.
The next series deals with Bacillus megaterium Bm11. In kind it is cell-based. The settings on record: 100% inhibition of growth after 18–20 h.
The test system of series [7] is Salmonella typhimurium LT2. The series is described as follows: Antibacterial activity (MIC), growth inhibition in LB medium. The following applies: 100% inhibition of growth after 18–20 h. The format is cell-based. As for the experimental part:
as §1

The test system of series [8] is human red blood cells (hRBC). The series is described as follows: Hemolysis of human red blood cells. The format is cell-based. The settings on record: for % hemolysis at 50 μM peptide: hRBC, 30 min at 37° C. The gist of the method:
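Washed fresh erythrocytes at 5% v/v final in PBS pH 7.3 exposed to peptide 30 min at 37° C with agitation. Hemoglobin release read as supernatant absorbance at 540 nm after centrifugation, scaled between PBS (0%) and 1% Triton (100%).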

The subject of series [9] is Bacillus subtilis ATCC 6051. The format is cell-based. The settings on record: 100% inhibition of growth after 18–20 h.
The subject of series [10] is Leishmania mexicana NR strain promastigotes. The series is described as follows: Anti-Leishmania activity, counting living promastigotes. The format is cell-based. The settings on record: 100% death after 24 h of incubation. As for the experimental part: The melittin-derived diastereomer peptide 20 (see Example 2 above) and the Leu/Lys diastereomer peptide 23 (see Example 3 above) were tested against Leishmania. Promastigotes of the Leishmania mexicana NR strain to be assayed were cultured at 27° C. in RPMI 1640 medium supplemented with 10% fetal bovine serum. Parasite were harvested by centrifugation at 1200×g for 10 min at 4° C. and washed twice with PBS (50 mM sodium phosphate, 150 mM NaCl, pH 7). The washed promastigotes were counted in a hemocytometer and adjusted to 1×10^6 parasites/ml. Aliquotes of this suspension were assayed in a final volume of 100 μl by counting living (motile) cells after 24 h of incubation at 26° C. in the absence or presence of various concentrations of the diastereomers.

For another series, the system named is Sendai virus (Z strain). The following applies: no release of hemoglobin after incubation 37° C. 60 min.
In series [11] the test system is human red blood cells (hRBC). The settings on record: Oren and Shai, 1996; cited from earlier work.

In brackets after ≈: the same amount, converted by molar mass. Numbered stars: 1 amine (or outer) side, 2 acyl side, 3 side chain; on linkers, the order of the positions; unused ones are H or OH. Square brackets hold non-standard residues; d marks the D form. Peptide text beside a SMILES is read from it. Ethylenediamine = C(CN[*:2])N[*:1]

Protocol for Sendai virus (Z strain): Sendai virus (Z strain) was grown in the allantoic sac of 10–11 day old embryonated chicken eggs, harvested 48 h after injection and purified. The virus was resuspended in buffer composed of 160 mM NaCl, 20 mM tricine, pH 7.4, and stored at −70° C. Virus haemagglutinating activity was measured in haemagglutinating units (HAU). One microliter contained ˜60000 HAU. Fresh human blood was obtained from a blood bank and stored for up to 1 month at 4° C. Prior to use, erythrocytes were washed twice with PBS pH 7.2, and diluted to the desired concentration (% v/v) with the same buffer. Virions, erythrocytes and peptides were mixed in different orders of addition and various amounts. The final incubation was always at 37° C. for 60 min. followed by centrifugation at 5700 g for 10 min to remove intact cells. In all cases duplicate samples were used and two aliquots were taken from the supernatant of each sample to two wells of a 96-well plate. The amount of hemoglobin release was monitored by measuring the absorbance of the wells with the ELISA, plate reader at 540 nm. Antiviral activity was expressed as the minimal inhibitory concentration (MIC), the concentration at which no release of hemoglobin was observed after incubation.

In the case of `CC[C@H](C)[C@H](NC(=O)CN)C(=O)NCC(=O)N[C@@H](C)C(=O)N[C@H](C(=O)N[C@@H](CC(C)C)C(=O)N[C@@H](CCCCN)C(=O)N[C@H](C(=O)N[C@@H](CC(C)C)C(=O)N[C@H](C(=O)N[C@H](C(=O)NCC(=O)N[C@@H](CC(C)C)C(=O)N1CCC[C@H]1C(=O)N[C@@H](C)C(=O)N[C@@H](CC(C)C)C(=O)N[C@H](C(=O)N[C@@H](CO)C(=O)N[C@@H](Cc1c[nH]c2ccccc12)C(=O)N[C@H](C(=O)N[C@@H](CCCCN)C(=O)N[C@@H](CCCNC(=N)N)C(=O)N[C@@H](CCCCN)C(=O)N[C@@H](CCCNC(=N)N)C(=O)N[C@@H](CCC(N)=O)C(=O)N[C@@H](CCC(N)=O)C(N)=O)[C@@H](C)CC)[C@@H](C)CC)[C@@H](C)O)[C@@H](C)O)C(C)C)C(C)C` [Melittin], in [1], the “Minimal Inhibitory Concentration M. luteus (ATCC 9341)” value amounted to 0.4 µM. In addition, the “Minimal Inhibitory Concentration P. aeruginosa (ATCC 27853)” value in [2] came out at 25 µM. The α-helix content in [3] is listed as 73%. The “membrane permeating activity with PC (zwitterionic) vesicles” value in series [4] was “highly active”. Also, the “partition coefficient reported for melittin binding” value in series [5] is 4.5±0.6×10^4 M^−1.
Consider `CC[C@H](C)[C@H](NC(=O)[C@H](CCCCN)NC(=O)[C@H]1CCCN1C(=O)[C@@H](NC(=O)[C@H](CC(C)C)NC(=O)[C@H](C)NC(=O)[C@H](Cc1ccccc1)NC(=O)[C@H](Cc1ccccc1)NC(=O)CN)[C@@H](C)CC)C(=O)N[C@H](C(=O)N[C@@H](CO)C(=O)NCCN)[C@@H](C)CC` [Peptide 7, [D]P^7-[1-11]-TApar] (H-GFFALI[dP]KIIS-Ethylenediamine; N-terminus assumed), for which the “Minimal Inhibitory Concentration E. coli (D21)” value in the series with Escherichia coli D21 is above 120 µM. Also, in [6], the “Minimal Inhibitory Concentration A. calcoaceticus (Ac11)” value was above 120 µM. The “Minimal Inhibitory Concentration B. megaterium (Bm11)” value in the series on Bacillus megaterium Bm11 stood at 30 µM. For the same molecule, the “Minimal Inhibitory Concentration S. typhimurium (LT2)” value in [7] was above 120 µM. In addition, the “Minimal Inhibitory Concentration P. aeruginosa (ATCC 27853)” value in series [2] is above 120 µM. In addition, in series [8], the “% hemolysis at 50 μM peptide” value is 0%.
As to `CC[C@H](C)[C@H](NC(=O)[C@H](CCCCN)NC(=O)[C@@H]1CCCN1C(=O)[C@@H](NC(=O)[C@H](CC(C)C)NC(=O)[C@H](C)NC(=O)[C@H](Cc1ccccc1)NC(=O)[C@H](Cc1ccccc1)NC(=O)CN)[C@@H](C)CC)C(=O)N[C@H](C(=O)N[C@@H](CO)C(=O)N[C@@H](CO)C(=O)N1CCC[C@H]1C(=O)N[C@@H](CC(C)C)C(=O)N[C@@H](Cc1ccccc1)C(=O)N[C@@H](CCCCN)C(=O)N[C@H](C(=O)N[C@@H](CC(C)C)C(=O)N[C@@H](CC(C)C)C(=O)N[C@@H](CO)C(=O)N[C@@H](C)C(=O)N[C@H](C(=O)NCC(=O)N[C@@H](CO)C(=O)N[C@@H](C)C(=O)N[C@@H](CC(C)C)C(=O)N[C@@H](CO)C(=O)N[C@@H](CO)C(=O)N[C@@H](CO)C(=O)NCC(=O)NCC(=O)N[C@@H](CCC(N)=O)C(=O)N[C@@H](CCC(=O)NCCN)C(=O)NCCN)C(C)C)[C@@H](C)O)[C@@H](C)CC` [Peptide 8, TApar], in the series with Escherichia coli D21, the “Minimal Inhibitory Concentration E. coli (D21)” value turned out to be 3 µM. Moreover, in series [6], the “Minimal Inhibitory Concentration A. calcoaceticus (Ac11)” value was 3 µM. In addition, the “Minimal Inhibitory Concentration B. megaterium (Bm11)” value in the series with Bacillus megaterium Bm11 is 0.8 µM. Moreover, in series [1], the “Minimal Inhibitory Concentration M. luteus (ATCC 9341)” value turned out to be 5 µM. Also, the “Minimal Inhibitory Concentration S. typhimurium (LT2)” value in series [7] came out at 15 µM. Also, in series [2], the “Minimal Inhibitory Concentration P. aeruginosa (ATCC 27853)” value was 8 µM. For the same molecule, in series [9], the “Minimal Inhibitory Concentration B. subtilis (ATCC 6051)” value worked out at 1.5 µM. Moreover, the “% hemolysis at 50 μM peptide” value in series [8] was found to be 100%.
In the case of `CC[C@@H](C)[C@@H](NC(=O)[C@H](CC(C)C)NC(=O)[C@H](C)NC(=O)[C@@H]1CCCN1C(=O)[C@H](CC(C)C)NC(=O)CNC(=O)[C@@H](NC(=O)[C@@H](NC(=O)[C@H](CC(C)C)NC(=O)[C@H](NC(=O)[C@H](CCCCN)NC(=O)[C@H](CC(C)C)NC(=O)[C@H](NC(=O)[C@H](C)NC(=O)CNC(=O)[C@@H](NC(=O)CN)[C@@H](C)CC)C(C)C)C(C)C)[C@@H](C)O)[C@@H](C)O)C(=O)N[C@@H](CO)C(=O)N[C@@H](Cc1c[nH]c2ccccc12)C(=O)N[C@H](C(=O)N[C@H](CCCCN)C(=O)N[C@@H](CCCNC(=N)N)C(=O)NCCN)[C@@H](C)CC` [Peptide 20, [D]-V^5V^8I^17K^21-[1-22]-TAmel], in the series on Escherichia coli D21, the “Minimal Inhibitory Concentration E. coli (D21)” value came to 8 µM. In addition, in series [6], the “Minimal Inhibitory Concentration A. calcoaceticus (Ac11)” value is 7 µM. In the series on Bacillus megaterium Bm11, the “Minimal Inhibitory Concentration B. megaterium (Bm11)” value was determined as 0.8 µM. For the same molecule, the “Minimal Inhibitory Concentration M. luteus (ATCC 9341)” value in [1] turned out to be 29 µM. For the same molecule, in [8], the “% hemolysis at 50 μM peptide” value worked out at 0%. Also, in [10], the “MIC Leishmania mexicana” value was determined as 32 µM (≈ 75.2 µg/mL).
Regarding `CC(C)C[C@H](NC(=O)[C@H](CCCCN)NC(=O)[C@@H](CC(C)C)NC(=O)[C@@H](CC(C)C)NC(=O)[C@H](CC(C)C)NC(=O)[C@@H](N)CCCCN)C(=O)N[C@@H](CC(C)C)C(=O)N[C@H](CC(C)C)C(=O)N[C@@H](CCCCN)C(=O)N[C@H](CC(C)C)C(=O)N[C@@H](CC(C)C)C(=O)N[C@@H](CCCCN)C(N)=O` [Peptide 23, [D]-L^3,4,8,10-K4L8] (H-KL[dL][dL]KLL[dL]K[dL]LK-NH2), the “hemolytic activity in comparison to melittin (fold less)” value in series [8] is recorded as above 100 fold. In addition, in [8] (red cells of human, 100), the “% hemolysis at 100 μM” value stood at 0%. Also, the “MIC Leishmania mexicana” value in [10] stood at 17 µM (≈ 24.4 µg/mL). For the same molecule, the “MIC Sendai virus” value in the series on Sendai virus (Z strain) came out at 80 µM (≈ 115 µg/mL).
For the molecule Pardaxin, the “hemolytic activity towards human erythrocytes relative to melittin (fold less)” value in series [11] is listed as 40–100 fold.
